In patent US20250352482A1, “AMORPHOUS DOSAGE FORM CONTAINING EBSELEN” (SOUND PHARMACEUTICALS INC., priority 2022, published 2025):

Conditions: minipig, in vivo
Procedure: Method: The purpose of this study was to determine the pharmacokinetics of ebselen and its metabolites in male and female bama mini-pigs following twice daily (BID) oral administration of two test formulations, control ebselen capsules (Formulation 1) and ebselen-ASD/HME capsules (Formulation 2) at 200 mg/animal for 2.5 days. Three male and three female naïve Bama mini-pigs were assigned to this study. In phase 1, animals received five oral doses (BID on day 1, BID on day 2 and QD on day 3) of Formulation 1: each dose comprised control ebselen capsules (1 (Ebselen capsule, 200 mg+3 placebo capsules). After one week wash out period, the same animals received five oral doses (BID on day 1, BID on day 2 and QD on day 3) of Formulation 2: each dose comprised four Ebselen ASD/HME capsules (Formulation 2), 50 mg each. In each phase, there were 12 hour intervals between dosing. Blood samples were collected at 0.5, 1, 2, 3, 4, 6, 8 and 12 hours post the first and fifth dosing. Concentrations of ebselen, and ebselen glucuronide metabolite in plasma samples were determined by LC-MS/MS.

SMILES: O=c1c2ccccc2[se]n1-c1ccccc1 [ebselen, 2-Phenyl-1,2-benzoselenazol-3 (2H)-one]
- accumulation on systemic exposure to ebselen: No obvious accumulation
